Test results reported in ChEMBL document CHEMBL1158352, “Development of CoMFA and CoMSIA models of cytotoxicity data of anti-HIV-1-phenylamino-1H-imidazole derivatives” (Eur J Med Chem, 2009).

Assay: Cytotoxicity against human MT4 cells
Type: cell-based
`COc1cccc(Nn2cnc(C)c2-c2ccccc2)c1` showed a CC50 of 34.4 µM.
In the case of `Cc1cccc(Nn2c(-c3ccccc3)c(C(C)C)[nH]c2=S)c1`, the CC50 is reported as 42.7 µM.
With `Cc1[nH]c(=S)n(Nc2cccc(Cl)c2)c1-c1ccc(Cl)cc1` the CC50 was 40.8 µM.
Work on `Cc1ncn(Nc2cccc(Cl)c2)c1-c1cccc(C(=O)O)c1` yielded a CC50 of 161 µM.
With `CCc1ncn(Nc2cccc(C)c2)c1-c1ccccc1` the CC50 was 27.9 µM.
Compound `Cc1nc(S)n(Nc2cccc(Cl)c2)c1-c1cccc(C(=O)O)c1` has a CC50 of 120 µM.
In the case of `Cc1ncn(Nc2cccc(Cl)c2)c1-c1cccc(N)c1`, the CC50 is reported as 261 µM.
In the case of `Cc1cccc(Nn2cnc(C)c2-c2cccc(N)c2)c1`, the CC50 is reported as 163 µM.
With `Cc1[nH]c(=S)n(Nc2cccc(Cl)c2)c1-c1cccc(Cl)c1` the CC50 was 31 µM.
For `COC(=O)c1nc(S)n(Nc2cccc(Cl)c2)c1C`, the CC50 was 48.8 µM.
`Cc1ncn(Nc2cccc(Cl)c2)c1-c1cccc(C#N)c1` gave a CC50 of 36.8 µM.
`Cc1cccc(Nn2c(S)nc(C)c2C)c1` gave a CC50 of 360 µM.
Compound `CCc1[nH]c(=S)n(Nc2cccc(C)c2)c1-c1ccccc1` has a CC50 of 53.6 µM.
Compound `CCc1ccc(Nn2c(S)nc(C)c2-c2ccccc2)cc1` has a CC50 of 34.4 µM.
Compound `Clc1cccc(Nn2cnc3c2CCCC3)c1` has a CC50 of 67.3 µM.
In the case of `COC(=O)c1c(C)nc(S)n1Nc1cccc(Cl)c1`, the CC50 is reported as 190 µM.
`Cc1nc(S)n(Nc2cccc(Cl)c2)c1-c1ccc(Br)cc1` gave a CC50 of 33.2 µM.
With `Cc1[nH]c(=S)n(Nc2ccc(Cl)cc2)c1-c1ccccc1` the CC50 was 135 µM.
`Cc1[nH]c(=S)n(Nc2cccc(Cl)c2)c1-c1cccc(Br)c1` showed a CC50 of 44 µM.
Work on `Cc1cccc(Nn2c(S)nc(C)c2-c2cccc(C#N)c2)c1` yielded a CC50 of 45.6 µM.
For `Cc1ncn(Nc2ccccc2)c1C`, the CC50 was 352 µM.
`Cc1ncn(Nc2cccc(Cl)c2)c1C` gave a CC50 of 214 µM.
For `Cc1cccc(Nn2cnc(C)c2-c2ccccc2)c1`, the CC50 was 27 µM.
With `Cc1ccc(Nn2c(-c3ccccc3)c(C)[nH]c2=S)cc1Cl` the CC50 was 44.3 µM.
`Cc1nc(S)n(Nc2ccccc2)c1C` gave a CC50 of 181 µM.
In the case of `COc1ccc(-c2c(C)[nH]c(=S)n2Nc2cccc(Cl)c2)cc1`, the CC50 is reported as 38.7 µM.
Compound `Cc1cccc(Nn2c(-c3ccccc3)c(C)[nH]c2=S)c1` has a CC50 of 88.3 µM.
`CCc1[nH]c(=S)n(Nc2cccc(Cl)c2)c1-c1ccccc1` showed a CC50 of 39 µM.
`Cc1cccc(Nn2cnc(C)c2C)c1` gave a CC50 of 312 µM.
`Cc1[nH]c(=S)n(Nc2ccc(F)cc2)c1-c1ccccc1` gave a CC50 of 220 µM.
For `Cc1nc(S)n(Nc2cccc(Cl)c2)c1-c1cccc(C#N)c1`, the CC50 was 99.3 µM.
With `Cc1ncn(Nc2cccc(Cl)c2)c1-c1cccc(Br)c1` the CC50 was 16.4 µM.
Compound `Cc1nc(S)n(Nc2cc(Cl)ccc2Cl)c1-c1ccccc1` has a CC50 of 147 µM.
For `Cc1[nH]c(=S)n(Nc2ccccc2)c1-c1ccccc1`, the CC50 was 191 µM.
In the case of `Cc1[nH]c(=S)n(Nc2cccc(Br)c2)c1-c1ccccc1`, the CC50 is reported as 44.3 µM.
Work on `COC(=O)c1c(C)ncn1Nc1cccc(Cl)c1` yielded a CC50 of 107 µM.
`Cc1ncn(Nc2cccc(Cl)c2)c1-c1cccc(Cl)c1` showed a CC50 of 11.9 µM.
Work on `Cc1[nH]c(=S)n(Nc2cccc(F)c2)c1-c1ccccc1` yielded a CC50 of 109 µM.
With `CSc1ccc(Nn2c(S)nc(C)c2-c2ccccc2)cc1` the CC50 was 53.1 µM.
Work on `Cc1nc(S)n(Nc2cccc(Cl)c2)c1C(=O)O` yielded a CC50 of 265 µM.
`Cc1cc(C)cc(Nn2c(-c3ccccc3)c(C)[nH]c2=S)c1` gave a CC50 of 194 µM.
`Cc1[nH]c(=S)n(Nc2cccc(Cl)c2)c1-c1ccccc1` gave a CC50 of 66.7 µM.
In the case of `Cc1nc(S)n(Nc2cccc(Cl)c2)c1-c1cccc(N)c1`, the CC50 is reported as 42.2 µM.
For `Cc1ncn(Nc2ccc(F)cc2)c1-c1ccccc1`, the CC50 was 30.8 µM.
`Cc1[nH]c(=S)n(Nc2ccccc2Cl)c1-c1ccccc1` gave a CC50 of 162 µM.
`Cc1ncn(Nc2ccccc2)c1-c1ccccc1` showed a CC50 of 52.1 µM.
Compound `Cc1nc(S)n(Nc2cccc3ccccc23)c1-c1ccccc1` has a CC50 of 12 µM.
In the case of `Cc1ncn(Nc2cccc(Cl)c2)c1-c1ccccc1`, the CC50 is reported as 17.5 µM.
`COc1cccc(Nn2c(S)nc(C)c2-c2ccccc2)c1` showed a CC50 of 38 µM.
In the case of `Sc1nc(-c2ccccc2)c(-c2ccccc2)n1Nc1cccc(Cl)c1`, the CC50 is reported as 36.3 µM.
Work on `Cc1cccc(Nn2cnc(C)c2-c2cccc(C#N)c2)c1` yielded a CC50 of 44.7 µM.
In the case of `Cc1ccc(Nn2c(-c3ccccc3)c(C)[nH]c2=S)cc1C`, the CC50 is reported as 55.6 µM.
Compound `Cc1[nH]c(=S)n(Nc2cccc([N+](=O)[O-])c2)c1-c1ccccc1` has a CC50 of 48.3 µM.
`Cc1nc(S)n(Nc2cccc(Cl)c2)c1C` showed a CC50 of 259 µM.
Work on `Cc1c(-c2ccccc2)nc(S)n1Nc1cccc(Cl)c1` yielded a CC50 of 50 µM.
`COC(=O)c1cccc(-c2c(C)nc(S)n2Nc2cccc(Cl)c2)c1` gave a CC50 of 67.3 µM.
`Cc1cccc(Nn2c(S)nc(C)c2-c2cccc(C(=O)O)c2)c1` showed a CC50 of 187 µM.
`Cc1cc(C)cc(Nn2cnc(C)c2-c2ccccc2)c1` gave a CC50 of 20.4 µM.
Compound `COC(=O)c1cccc(-c2c(C)ncn2Nc2cccc(Cl)c2)c1` has a CC50 of 33.1 µM.
In the case of `Sc1nc2c(n1Nc1cccc(Cl)c1)CCCC2`, the CC50 is reported as 126 µM.
